How the values were obtained:
Clostridium perfringens = settings: varying concentrations; cited from earlier work
[1] = test system: pESI conjugation between S. Infantis 119944 (donor) and E. coli ORN172 (recipient); test: pESI conjugation (mating) experiments on LB agar plates; type: cell-based, Salmonella enterica serovar Infantis; E. coli; settings: pESI transfer, LB agar plates supplemented with 2% (w/v) of the substance
[2] = test system: S. Infantis and the E. coli strains; test: Bacterial viability / growth in the conjugation experiments; type: cell-based, Salmonella enterica serovar Infantis; E. coli; settings: 2% of the substance

SMILES	bacterial viability (Clostridium perfringens)	conjugation frequency [1]	growth (rate) of S. Infantis and the E. coli strains [2]
C[C@H](CCC(=O)NCC(=O)O)[C@H]1CC[C@H]2[C@@H]3[C@H](O)C[C@@H]4C[C@H](O)CC[C@]4(C)[C@H]3CC[C@]12C [glycine-conjugated chenodeoxycholic acid]	significantly reduced bacterial viability	–	–
NCC(=O)O [glycine]	–	transconjugants in the presence of these regents were not produced	inhibited the growth
C[C@H](CCC(=O)NCCS(=O)(=O)O)[C@H]1CC[C@H]2[C@@H]3[C@H](O)C[C@@H]4C[C@H](O)CC[C@]4(C)[C@H]3CC[C@]12C [taurine-conjugated chenodeoxycholic acid]	significantly reduced bacterial viability	–	–
C[C@H](CCC(=O)O)[C@H]1CC[C@H]2[C@@H]3CC[C@@H]4C[C@H](O)CC[C@]4(C)[C@H]3CC[C@]12C [lithocholic acid, 3α-hydroxy-5β-cholan-24-oic acid]	–	significant decrease	no effect on the growth rate
C[C@H](CCC(=O)O)[C@H]1CC[C@H]2[C@@H]3[C@H](O)C[C@@H]4C[C@H](O)CC[C@]4(C)[C@H]3CC[C@]12C [chenodeoxycholic acid]	–	transconjugants in the presence of these regents were not produced	inhibited the growth
NCCS(=O)(=O)O [taurine, 2-aminoethanesulfonic acid]	–	inhibit conjugation to a lower degree	no effect on the growth rate
C[C@H](CCC(=O)O)[C@H]1CC[C@H]2[C@@H]3[C@H](O)C[C@@H]4C[C@H](O)CC[C@]4(C)[C@H]3C[C@H](O)[C@]12C [cholic acid]	–	significant decrease	–

— patent US11077123B2 (priority 2016, dated 2021)
